The record followed here is patent US20210205292A1, “INHIBITORS OF CREB-CBP INTERACTION FOR TREATMENT OF LEUKEMIA” (The Board of Trustees of the Leland Stanford Junior …, priority 2016, published 2021).

One data set deals with CREB genomic binding. As to the kind of experiment: CREB ChIP-Seq in KG-1 cells. The class given is cell-based. The note with it: 5 μM, 6 hours. Here is the method:
For Chip-Seq experiments, KG-1 cells were treated with 5 μM Compound A or DMSO for 6 hours. Cells were cross-linked with 1% formaldehyde at room temperature for 10 min and then incubated with […] for 5 min. After cross-linking, chromatin was digested by Micrococcal nuclease and then sonicated using SimpleChIP® Plus Enzymatic Chromatin IP Kit (Cell Signaling, Danvers, Mass.) following the manufacturer's protocol. Chromatin immunoprecipitations were carried out with anti-CREB antibody (Millipore, Billerica, Mass.) or a control IgG (Santa Cruz Biotechnology). The captured immunocomplexes containing bound transcriptional DNA fragments were eluted, with recovered DNA fragments used for PCR amplification. For RNA-Seq experiments, KG-1 cells were treated with Compound A (5 μM) or 0.1% DMSO for 12 hours. RNA was prepared using the Aurum Total RNA Mini Kit (Bio-Rad). Sample libraries were run using the Illumina sequencing platform. Two hundred million reads were collected on two biological replicates of the experiment. […]
To determine the functional specificity and downstream effects of Compound A in AML, the CREB transcriptome was first defined in KG-1 cells using CREB chromatin immunoprecipitation followed by high-throughput sequencing (CREB ChIP-Se). […] In this way, the ‘on-target’ effects of Compound A could be assessed.

The test system of data set [1] is Bcl-2, Mcl-1, Bcl-XL expression in HL-60 cells. As to the kind of experiment: RT-PCR and Western blot of anti-apoptotic proteins in HL-60 cells. The class given is cell-based, human. Set-up: transcription of Bcl-2: dose or concentration left out as unconfirmed. Here is the method:
Total RNA was isolated using the Aurum RNA Isolation Mini Kit, and the iScript cDNA Synthesis Kit was used to prepare samples for qPCR (Bio-Rad). PCR was performed on the CFX384 Real-Time System (Bio-Rad) and results were analyzed using the Livak method. For analysis of RNA-seq data as target genes of known transcription factors, a curated list of all human target genes was extracted from the TRANSFAC Pro database.
(§1) Cells were lysed in RIPA buffer (Sigma), and the protein concentrations were determined by BCA assay (Thermo Scientific Pierce). Lysates were solubilized in 6×SDS PAGE buffer and […] of protein was loaded into 6-15% SDS PAGE gels, pheresed, and then transferred onto […] PVDF membrane (Millipore). Primary antibodies were applied at a dilution of 1:1000. Anti-Bcl-2, -Bax, -Mcl-1, -Bcl-XL, -Cyclin A and -Cyclin D1 antibodies were purchased from Cell Signaling Technologies. Anti-total acetylated histone and -ac-H3K27 were purchased from Santa Cruz Biotechnologies. Anti-actin and -CREB antibodies were purchased from upstate. Secondary antibodies were used at a 1:2500 dilution and purchased from Thermo Scientific/Pierce. WesternBright ECL was used for image acquisition on Image Lab software (Bio-Rad).
The balance between pro- and anti-apoptotic protein expression contributes to cell fate decisions. CREB regulates the expression of several anti-apoptotic proteins, including Bcl-2, Bcl-XL and Mcl-1. Bcl-2 expression in particular is known to mediate resistance to chemotherapy and influence clinical outcome in a number of cancer types, including AML. The ability of Compound A to cause apoptosis by disrupting the CREB-driven expression of these anti-apoptotic proteins was examined. In HL-60 cells treated with Compound A, apoptosis is induced in a dose- and time-dependent manner. […] Compound A elicited apoptosis through the intrinsic apoptosis pathway, with activation of Caspase-3 (FIG. 5, panel B) and detectable Caspase-9 cleavage (data not shown). […]

A further data set concerns CREB phosphorylation. As to the kind of experiment: CREB phosphorylation in HL-60 cells. The class given is cell-based, human.
Source text: FIG. 12, panels A-D, illustrates the results of CyTOF Phenotyping and Compound A Combination Studies. […] Viability for Compound A treatment alone was 87.4±7.3%, versus 55.3±3.4% and 49.5±2.3% when combined with ERK and RSK inhibitors, respectively (* indicates p<0.05 compared to cells treated with Compound A alone). Panel D) Compound A inhibits CREB phosphorylation in the presence of serum. HL-60 cells were serum-starved then stimulated with serum.
as §1

Data set [2] is described as follows: Plasma pharmacokinetics in NSG mice, quantitative mass spectrometry. The class given is in vivo. The note with it: mouse, ip, 20 mg/kg/day, 20 mg/kg/day IP. On the procedure:
FIG. 10, panels A-D, illustrates the non-toxicity and pharmacodynamics of compound Compound A. Panel A) Human AML patient sample cells (#186) were injected (2×10^6 cells) into 8 NSG mice, and mice were then treated with intravenous 0.1% DMSO or 2.3 mg/kg Compound A IV once daily. […] Compound A plasma concentration was measured by quantitative mass spectrometry. […] Panel C). […] Numbers shown are averages of values from 3 mice SE.
To assess the potential in vivo toxicities of Compound A, four groups of five mice not injected with AML cells were treated with 2.3 mg/kg Compound A intravenously daily, or 20, 40 or 60 mg/kg intraperitoneally (IP) daily for 28 days.

Turning to `N#Cc1ccc(NC(=O)c2cc3ccccc3cc2O)cc1` [Compound A, N-(4-cyanophenyl)-3-hydroxy-2-naphthamide], the CREB genomic binding entry with CREB genomic binding was “did not change”. In data set [1], the Bcl-XL expression entry is given as “remained constant” and the “expression of Mcl-1” value is recorded as “initially increased, then decreased at 72 hours”. The “transcription of Bcl-2” value in data set [1] (72 hours) was “decreased”. In addition, the “CREB phosphorylation in the presence of serum” value in the data set on CREB phosphorylation (HL-60 cells serum-starved then stimulated with serum, 48 hours) is “CREB phosphorylation decreases”. Further, the CREB phosphorylation entry in the data set with CREB phosphorylation (HL-60 cells, 24 hours) was “increase in CREB phosphorylation”. The half-life – broadly, the time in which the quantity being followed falls by half – in data set [2] was 4.3 h.
